Test results from paper PMC9853869, “The Myxobacterial Antibiotic Myxovalargin: Biosynthesis, Structural Revision, Total Synthesis, and Molecular Characterization of Ribosomal Inhibition” (Journal of the American Chemical Society, 2023).
*1 amine or outer side, *2 acyl side, *3 side chain or, on linkers, in order; H or OH if unused. Where a SMILES comes first, the peptide text is derived from it. [ ]: non-standard residue; d: D form. The star is where a group is joined. X1 = O=C(C[C@H](N[*:1])c1ccc(O)cc1)[*:2]; dVal(3-OH) = CC(C)(O)[C@@H](N)C(=O)O; ΔIle(E) = CC/C(C)=C(/N)C(=O)O; Isovaleryl = CC(C)CC(=O)*; Agmatine = N=C(N)NCCCCN*; NMeA = CN[C@@H](C)C(=O)O; ΔVal = CC(C)=C(N)C(=O)O

Legend:
M. tuberculosis = assay type: cell-based, Mycobacterium tuberculosis
[1] = test system: M. tuberculosis MXV-SRM69 (rrl: t2847c, rrl: t2849g, Rv2935/ppsE: G146*); conditions: MXV-SRM69 (rrl: t2847c, rrl: t2849g, Rv2935/ppsE: G146*, 4 h)

## CC/C(C)=C(/NC(=O)[C@H](NC(=O)[C@@H](NC(=O)[C@@H](CCCNC(=N)N)NC(=O)C(NC(=O)[C@H](NC(=O)C[C@H](NC(=O)[C@H](NC(=O)[C@H](NC(=O)[C@H](C)N(C)C(=O)[C@H](C)NC(=O)C(NC(=O)CC(C)C)=C(C)C)C(C)C)C(C)C)c1ccc(O)cc1)C(C)C)=C(C)C)C(C)C)C(C)C)C(=O)N[C@H](C)C(=O)N[C@@H](C(=O)NCCCCNC(=N)N)C(C)(C)O [MyxA, Myxovalargin A] (Isovaleryl-[ΔVal]A[NMeA][dV][dV][X1][dV][ΔVal][dR]V[dV][ΔIle(E)][dA][dVal(3-OH)]-Agmatine)
M. tuberculosis
  MIC shift of resistant mutant strains: > 40 fold
  frequency of spontaneous resistance mutants: ~6 × 10^–7
[1]
  MIC: >210 mg/L
